Where two headings read alike, the source gives them in different places.
Legend:
estrogen receptor α = conditions: cited from earlier work; for pRBA: modeled test set TSMOD3
MCF-7 cells = experiment: Cell cycle distribution by flow cytometry; format: cell-based, human; conditions: 24 h
[1] = ligands of mutated (MUT) ERα complexes, training set
[2] = crystal test set TSCRY (WT and MUT complexes)
[3] = ligands of wild-type (WT) ERα complexes, training set

In the case of `CCc1c(-c2ccc(O)cc2)nn(-c2ccc(O)cc2)c1-c1ccc(OCC(O)CO)cc1` (stereo not drawn) [Compound I3-I-G], the pKi (estrogen receptor α; modeled test set TSMOD2) is given as 8.37.

In the case of `COc1ccc(CCC(=O)C=CC=Cc2ccc([N+](=O)[O-])cc2)cc1` [Compound I6-15], the pKi (estrogen receptor α; modeled test set TSMOD2) is given as 5.63.

For `Oc1ccc(-c2n[nH]c3cc(O)ccc23)c(O)c1` [Compound 2QA6], the pIC50 (estrogen receptor α; [1]) is given as 7.30.

For `CCCc1c(-c2ccc(O)cc2)nn(-c2ccc(O)cc2)c1-c1ccc(O)cc1` [Compound I3-I3], the pKi (estrogen receptor α; modeled test set TSMOD2) is listed as 9.23.

For `CCc1c(-c2ccc(O)cc2)nn(-c2ccc(O)cc2)c1-c1ccc(OCCN(CC)CC)cc1` [Compound I3-I-E2], the pKi (estrogen receptor α; modeled test set TSMOD2) is given as 8.74.

For `C[C@H]1CCC[C@H](O)CCCCCc2cc(O)cc(O)c2C(=O)O1` [Compound 4MG8], the pKi (estrogen receptor α; [2]) is given as 10.00.

In the case of `Cc1c(-c2ccc(O)cc2)nn(-c2ccc(O)cc2)c1-c1ccc(OCCN2CCCCC2)cc1` [Compound I3-I-A1], the pKi (estrogen receptor α; modeled test set TSMOD2) is listed as 7.57.

In the case of `O=c1c(O)c(-c2ccccc2)oc2cc(O)cc(O)c12` [Galangin], the pIC50 (estrogen receptor α; modeled test set TSMOD1) is given as 4.81.

In the case of `COc1ccc(-c2cc(=O)c3c(O)c(OC)c(OC)cc3o2)cc1O` [Eupatorin], the pIC50 (estrogen receptor α; modeled test set TSMOD1) is given as 5.09.

For `CCCCc1c(-c2ccc(O)cc2)nn(-c2ccc(O)cc2)c1-c1ccc(O)cc1` [Compound I3-I4], the pKi (estrogen receptor α; modeled test set TSMOD2) is given as 8.68.

In the case of `Cc1ccc(N=Cc2cn(-c3ccccc3)nc2-c2ccccc2)cc1[N+](=O)[O-]` [Compound I11-4a8], the pIC50 (estrogen receptor α; modeled test set TSMOD1) is listed as 5.4.

For `CCc1c(-c2ccc(O)cc2)nn(-c2ccc(O)cc2)c1-c1ccc(OCCN2CCCC2)cc1` [Compound I3-I-C2], the pKi (estrogen receptor α; modeled test set TSMOD2) is given as 8.72.

For `Brc1ccc(N=Cc2cn(-c3ccccc3)nc2-c2ccccc2)cc1` [Compound I11-4a5], the pIC50 (estrogen receptor α; modeled test set TSMOD1) is given as 5.52.

For `O=C1C[C@@H](c2ccc(O)cc2)Oc2cc(O)cc(O)c21` [Naringenin], the pIC50 (estrogen receptor α; modeled test set TSMOD1) is given as 4.18.

In the case of `O=c1c(O)c(-c2ccc(O)cc2)oc2ccc(O)cc12` [-Trihydroxy flavone], the pRBA (estrogen receptor α) is listed as 3.35.

For `C[C@H]1CCC[C@H](O)CCC/C=C/c2cc(O)cc(O)c2C(=O)O1` [Compound 4TUZ], the pKi (estrogen receptor α; [2]) is given as 10.00.

In the case of `c1ccc(CNc2nc(NCc3ccccc3)nc(NCc3ccccc3)n2)cc1` [Compound I4-1c], the pKi (estrogen receptor α; modeled test set TSMOD2) is given as 3.39.

In the case of `C[C@]12CC[C@@H]3c4ccc(O)cc4CC[C@H]3[C@@H]1CC[C@@H]2O` [Compound E2, 17β-estradiol, reference compound], the “Cell Cycle (%) G0/G1” value (MCF-7 cells; 0.1 nM) is reported as 17.34 ± 0.35 *^,‡,§ %, the “Cell Cycle (%) G2/M” value (MCF-7 cells; 0.1 nM) is reported as 54.51 ± 0.57 *^,‡,§ % and the “Cell Cycle (%) S” value (MCF-7 cells; 0.1 nM) is reported as 28.15 ± 0.52 *^,‡,§ %. The “Cell Cycle (%) G0/G1” value (MCF-7 cells; 1 nM) was 25.34 ± 0.36 *^,‡,§ %, the “Cell Cycle (%) G2/M” value (MCF-7 cells; 1 nM) was 45.14 ± 0.33 *^,‡,§ % and the “Cell Cycle (%) S” value (MCF-7 cells; 1 nM) was 29.52 ± 0.46 *^,‡,§ %.

In the case of `O=c1c(O)c(-c2ccc(O)c(O)c2)oc2cc(O)ccc12` [Fisetin], the pIC50 (estrogen receptor α; modeled test set TSMOD1) is listed as 5.38.

In the case of `COc1ccc(CCC(=O)C=CC=Cc2ccc(O)c(OC)c2)cc1` [Compound I6-12], the pKi (estrogen receptor α; modeled test set TSMOD2) is listed as 5.86.

In the case of `COc1ccc(CCC(=O)C=CC=Cc2ccc(N(C)C)cc2)cc1` [Compound I6-18], the pKi (estrogen receptor α; modeled test set TSMOD2) is listed as 5.66.

For `O=C(c1ccc(O)cc1O)c1ccc(O)cc1O` [Compound 4MGC], the pKi (estrogen receptor α; [2]) is listed as 7.00.

For `CCCc1c(-c2ccc(O)cc2)nn(-c2ccc(O)cc2)c1-c1ccc(OCCN2CCCCC2)cc1` [Compound I3-I-A3], the pKi (estrogen receptor α; modeled test set TSMOD2) is listed as 8.36.

In the case of `O=c1c(O)c(-c2ccc(O)c(O)c2)oc2cc(O)cc(O)c12` [Quercetin], the pIC50 (estrogen receptor α; modeled test set TSMOD1) is given as 4.76.

In the case of `Clc1ccccc1CN=Cc1cn(-c2ccccc2)nc1-c1ccccc1` [Compound I11-4a9], the pIC50 (estrogen receptor α; modeled test set TSMOD1) is given as 4.89.

For `CC1(O)CCC2c3ccc4cc(O)ccc4c3CCC21C` (stereo not drawn) [Compound 2B1Z], the pIC50 (estrogen receptor α) is listed as 7.10.

For `Cc1ccccc1N=Cc1cn(-c2ccccc2)nc1-c1ccccc1` [Compound I11-4a1a], the pIC50 (estrogen receptor α; modeled test set TSMOD1) is given as 4.33.

In the case of `CCc1c(-c2ccc(O)cc2)nn(-c2ccc(O)cc2)c1-c1ccc(OCCN2CCCC2=O)cc1` [Compound I3-I-F], the pKi (estrogen receptor α; modeled test set TSMOD2) is given as 8.64.

For `COc1cc(C=CC=CC(=O)CCc2ccccc2)ccc1O` [Compound I6-14], the pKi (estrogen receptor α; modeled test set TSMOD2) is listed as 6.01.

For `Cc1ccccc1N=Cc1cn(-c2ccc([N+](=O)[O-])cc2)nc1-c1ccccc1` [Compound I11-4b1], the pIC50 (estrogen receptor α; modeled test set TSMOD1) is given as 3.58.

For `O=C(C=CC=Cc1ccccc1)CCc1ccccc1` [Compound I6-1], the pKi (estrogen receptor α; modeled test set TSMOD2) is given as 6.19.

For `CCCNc1nc(NCCC)nc(NCCC)n1` [Compound I4-1b], the pKi (estrogen receptor α; modeled test set TSMOD2) is given as 3.10.

In the case of `Oc1ccc([C@@H]2Sc3cc(O)ccc3O[C@@H]2c2ccc(OCCN3CCCCC3)cc2)cc1` [Compound 1SJ0], the pIC50 (estrogen receptor α) is listed as 9.09.

For `COc1ccc(CCC(=O)C=CC=Cc2ccccc2)cc1` [Compound I6-17], the pKi (estrogen receptor α; modeled test set TSMOD2) is listed as 5.83.

For `CC1CCN(CCOc2ccc(C(=O)c3c(-c4ccc(O)cc4)sc4cc(O)ccc34)cc2)CC1` [Compound 2R6W], the pKi (estrogen receptor α; Table S1, PDB ligands) is given as 9.4 and the pIC50 (estrogen receptor α; [1]) is given as 8.60.

In the case of `Cc1c(-c2ccc(O)cc2)nn(-c2ccc(O)cc2)c1-c1ccc(O)cc1` [Compound I3-I1], the pKi (estrogen receptor α; modeled test set TSMOD2) is given as 7.25.

For `O=C(C=CC=Cc1ccc([N+](=O)[O-])cc1)CCc1ccccc1` [Compound I6-16], the pKi (estrogen receptor α; modeled test set TSMOD2) is given as 6.29.

In the case of `CCN(CC)CCOc1ccc(-c2c(C)c(-c3ccc(O)cc3)nn2-c2ccc(O)cc2)cc1` [Compound I3-I-E1], the pKi (estrogen receptor α; modeled test set TSMOD2) is listed as 8.42.

In the case of `Cc1cccc(C)c1N=Cc1cn(-c2ccccc2)nc1-c1ccccc1` [Compound I11-4a2], the pIC50 (estrogen receptor α; modeled test set TSMOD1) is given as 4.13.

In the case of `Cc1cc(F)ccc1-c1c(Cc2ccc(/C=C/C(=O)O)cc2)c2ccc(O)cc2oc1=O` [Compound 5AK2], the pIC50 (estrogen receptor α; [1]) is given as 8.40.

In the case of `Cc1ccc(N=Cc2cn(-c3ccccc3)nc2-c2ccccc2)cc1` [Compound I11-4a3b], the pIC50 (estrogen receptor α; modeled test set TSMOD1) is listed as 4.25.

For `Cc1c(-c2ccc(O)cc2)nn(-c2ccc(O)cc2)c1-c1ccc(OCCN2CCCC2)cc1` [Compound I3-I-C1], the pKi (estrogen receptor α; modeled test set TSMOD2) is given as 7.60.

For `COc1ccc(-c2coc3cc(O)cc(O)c3c2=O)cc1` [Biochanin A], the pRBA (estrogen receptor α) is listed as 5.37.

In the case of `O=[N+]([O-])c1ccc(-n2cc(C=Nc3ccc(Cl)cc3)c(-c3ccccc3)n2)cc1` [Compound I11-4b3], the pIC50 (estrogen receptor α; modeled test set TSMOD1) is given as 3.61.

For `O=c1cc(-c2ccccc2)oc2cc(O)c(O)c(O)c12` [Baicalein], the pIC50 (estrogen receptor α; modeled test set TSMOD1) is listed as 4.71 and the pRBA (estrogen receptor α) is listed as 6.05.

For `COc1ccc([C@@H]2CC(=O)c3c(O)cc(O)cc3O2)cc1O` [Hesperetin], the pIC50 (estrogen receptor α; modeled test set TSMOD1) is listed as 4.4.

For `CCc1c(-c2ccc(O)cc2)nn(-c2ccc(O)cc2)c1-c1ccc(OCCN2CCCCC2)cc1` [Compound I3-I-A2], the pKi (estrogen receptor α; modeled test set TSMOD2) is listed as 8.60.

For `Cc1ccc(N=Cc2cn(-c3ccc([N+](=O)[O-])cc3)nc2-c2ccccc2)cc1` [Compound I11-4b2], the pIC50 (estrogen receptor α; modeled test set TSMOD1) is given as 3.58.

For `CN(C)c1ccc(C=CC=CC(=O)CCc2ccc(O)cc2)cc1` [Compound I6-10], the pKi (estrogen receptor α; modeled test set TSMOD2) is given as 3.63.

For `CCc1c(-c2ccc(O)cc2)nn(-c2ccc(O)cc2)c1-c1ccc(OCCN2CCOCC2)cc1` [Compound I3-I-B], the pKi (estrogen receptor α; modeled test set TSMOD2) is listed as 8.49.

In the case of `Oc1ccc(C(c2ccc(O)cc2)(C(F)(F)F)C(F)(F)F)cc1` [Compound 3UUA], the pKi (estrogen receptor α; [2]) is given as 8.79.

In the case of `CN(C)c1ccc(C=CC=CC(=O)CCc2ccccc2)cc1` [Compound I6-19], the pKi (estrogen receptor α; modeled test set TSMOD2) is listed as 6.04.

In the case of `Oc1ccc2c(c1)CCN(c1ccccc1)[C@H]2c1ccc(N2CCC3CCCCN3C2)cc1` (stereo partly drawn) [Compound 1XQC], the pIC50 (estrogen receptor α; [3]) is given as 7.20.

For `CC(C)CNc1nc(NCC(C)C)nc(NCC(C)C)n1` [Compound I4-1a], the pKi (estrogen receptor α; modeled test set TSMOD2) is given as 3.19.

For `CC/C(=C(\c1ccccc1)c1ccc(/C=C/C(=O)O)cc1)c1ccccc1` [Compound 1R5K], the pIC50 (estrogen receptor α; [3]) is listed as 7.40.

In the case of `O=C1CC(c2ccccc2)Oc2ccc(O)cc21` (stereo not drawn) [6-Hydroxyflavanone], the pRBA (estrogen receptor α) is listed as 6.05.

In the case of `O=c1cc(-c2ccc(O)cc2)oc2ccc(O)cc12` [-Dihydroxyflavone], the pRBA (estrogen receptor α) is listed as 3.82.

In the case of `FC(F)(F)c1ccccc1CN=Cc1cn(-c2ccccc2)nc1-c1ccccc1` [Compound I11-4a10], the pIC50 (estrogen receptor α; modeled test set TSMOD1) is listed as 3.61.

For `Cc1ccc(N=Cc2cn(-c3ccc([N+](=O)[O-])cc3)nc2-c2ccccc2)cc1[N+](=O)[O-]` [Compound I11-4b6], the pIC50 (estrogen receptor α; modeled test set TSMOD1) is given as 3.63.

In the case of `CCc1c(-c2ccc(O)cc2)nn(-c2ccc(O)cc2)c1-c1ccc(OCCN(C)C)cc1` [Compound I3-I-D], the pKi (estrogen receptor α; modeled test set TSMOD2) is listed as 8.48.

In the case of `CC(C)(c1ccc(O)cc1)c1ccc(O)cc1` [Compound 3UU7], the pKi (estrogen receptor α; [2]) is given as 8.79.

In the case of `OCc1cc(Br)c(-c2ccc(O)cc2)c(-c2ccoc2)c1` [Compound 4DMA], the pKi (estrogen receptor α; [2]) is listed as 5.60.

For `O=c1c(-c2ccc(O)c(O)c2)coc2cc(O)ccc12` [-Trihydroxy isoflavone], the pRBA (estrogen receptor α) is given as 5.35.

In the case of `Oc1ccc(C(=C(Cl)Cl)c2ccc(O)cc2)cc1` [Compound 3UUC], the pKi (estrogen receptor α; [2]) is given as 5.70.

In the case of `O=c1cc(-c2ccccc2)oc2ccc(O)cc12` [6-Hydroxyflavone], the pRBA (estrogen receptor α) is given as 6.40.

In the case of `CCc1c(-c2ccc(O)cc2)nn(-c2ccc(O)cc2)c1-c1ccc(O)cc1` [Compound I3-I2], the pKi (estrogen receptor α; modeled test set TSMOD2) is listed as 9.08.

In the case of `O=C(c1ccc(OCCN2CCCC2)cc1)c1c(-c2ccc(O)cc2)sc2cc(O)ccc12` [Compound 2R6Y], the pKi (estrogen receptor α; Table S1, PDB ligands) is listed as 9.5 and the pIC50 (estrogen receptor α; [1]) is listed as 8.90.

Reference: paper PMC9101642 (Molecules, 2022)
